This note sets out measurements from US6465646B1, “1-alkoxy and 1-acyloxy substituted cyclohex-1-ene compounds and sulfur and 1-alkoxycarbonyl analogs having retinoid-like biological activity” (Allergan, Inc., priority 1999, dated 2002).

In this assay the test system is ornithine decarboxylase (ODC). Description: Ornithine decarboxylase (ODC) assay: inhibition of TPA induction of ODC activity. The format is cell-based. From the text: A classic measure of retinoic acid activity involves measuring the effects of refinoic acid on ornithine decarboxylase (ODC). The original work on the correlation between retinoic acid and decrease in cell proliferation was done by Verma & Boutwell, Cancer Research, 1977,37, 2196-2201. That reference discloses that ornithine decarboxylase activity increased precedent to polyamine biosynthesis. It has been established elsewhere that increases in polyamine synthesis can be correlated or associated with cellular proliferation. Thus, if ODC activity could be inhibited, cell hyperproliferation could be modulated. Although all cases for ODC activity increases are unknown, it is known that 12-O-tetradecanoylphorbol-13-acetate (TPA) induces ODC activity. Retinoic acid inhibits this induction of ODC activity by TPA. […] “IC60” is that concentration of the test compound which causes 60% inhibition in the ODC assay. By analogy, “IC80”, for example, is that concentration of the test compound which causes 80% inhibition in the ODC assay.

In the case of `CCOC(=O)c1ccc(C#C/C=C/C2=C(O[Si](C)(C)C)CCCC2(C)C)cc1` [Compound 1, Ethyl (±)-(E)-4-(4-(6,6-dimethyl-2-(trimethylsily)oxycyclohex-1-enyl)but-3-en-1-yn-yl)benzoate], the IC80 (footnote 1: IC80, read-out: IC80 (concentration of the test compound which causes 80% inhibition in the ODC assay)) worked out at 0.46 nM.

For `CCOC(=O)c1ccc(C#C/C=C/C2=C(C(=O)OC)CCCC2(C)C)cc1` [Compound 6, Ethyl (E)-4-(4-(6-Carbomethoxy-2,2-dimethylcyclohex-1-enyl)but-3-en-1-yn-yl)benzoate], the “IC60 (concentration of the test compound which causes 60% inhibition in the ODC assay)” value (footnote 2: IC60) is on record as 0.3^2 nanomolar.
